Source: patent US5227508A, “3-deoxy-3-substituted analogs of phosphatidylinositol” (Mayo Foundation for Medical Education and Research, priority 1992, dated 1993)
Where two headings read alike, the source gives them in different places.

Tests used:
[1] = test system: NIH 3T3 cells (wild type); test: Cell growth inhibition, wild type NIH 3T3 cells, 3 days; assay type: cell-based; settings: for IC50: Mus musculus, NIH3T3, 72 h, 3 days
Protocol: (§1) Wild type NIH 3T3 cells and v-sis oncogene-expressing NIH 3T3 cells were maintained in bulk culture in DMEM with 10% heat inactivated calf serum and passaged using 0.05% trypsin and 0.5 mM EDTA. For cell growth assays, the cells were plated at a density of 5×10^3 cells in 1.6 cm diameter culture wells in 0.5 ml DMEM containing 10% heat inactivated calf serum and allowed to attach to the surface of the well for 24 hr. The medium was then replaced with fresh medium containing the myo-inositol analogues. […] Adherent cells were harvested after 3 days and were counted using an automated cell counter. Inhibition of cell growth caused by serial concentrations of analogues was expressed as a percentage of the number of nontreated cells at the end of the 3-day incubation period. Incubations were conducted in quadruplicate. The mean concentration of analogue required to cause 50% inhibition of cell growth (IC50)±S.E. was calculated from nonlinear least-squares regression analysis of the cell-proliferation concentration data (P. L. Appel et al., Cancer Chemother. Pharmacol., 17, 47 (1986)).

[2] = test system: v-sis oncogene-expressing NIH 3T3 cells; test: Cell growth inhibition, v-sis oncogene-expressing NIH 3T3 cells, 3 days; assay type: cell-based; settings: for IC50: Mus musculus, NIH3T3, 72 h, 3 days
Protocol: as §1

HT-29 cells = test: Soft agar colony forming assay, HT-29 colon carcinoma, 7 days; assay type: cell-based; settings: Homo sapiens, HT-29, 168 h, medium with 40 μM myo-inositol, read-out: IC50 for inhibition of colony formation
Protocol: The human colon carcinoma cell line, HT-29, was chosen as being representative of a clinically very important, slow growing and chemotherapy resistant human solid tumor. Many human colon cancer lines, including HT-29, have the v-sis oncogene (D. L. Trainer et al., Int. J. Cancer, 41, 287 (1988)). The growth of HT-29 cells was measured by colony formation in the soft agar colony forming assay over 7 days, with automated colony counting using a Omicon 3600 Image Analysis System, as described previously by M. C. Alley et al., 44, 549 (1984).
All soft-agarose cultures were performed in similar fashion. Each 35-mm culture dish contained a base layer consisting of 0.5 ml of standard DMEM culture medium (with 40 μM myo-inositol) with 0.5% agarose. On Day 0, cells in bulk culture were dissociated with trypsin and EDTA, washed once in growth medium, and subcultured by layering 1×10^4 viable cells in 0.5 ml of growth medium with 0.3% agarose over each base layer. Cultures were maintained in cell culture incubators at 37° C., 5% CO2 :95% air, and 100% relative humidity. On Day 1 (24 hr later), an upper layer of 1 ml of growth medium containing drug was applied to each culture. Cell lines formed a sufficient number of detectable colonies (>60 μm diameter) for analysis following 7 days of incubation. […]

[3] = test system: normal NIH 3T3 cells and several oncogene transformed NIH 3T3 cell lines; settings: in culture; prior work (A. P. Kozikowski); cited from earlier work
[4] = - myo-inositol, ± S.E. of mean, read-out: NIH IC50
[5] = - myo-inositol, ± S.E. of mean, read-out: v-sis NIH IC50

SMILES	IC50 ([1]; + myo-inositol, ± S.E. of mean, read-out: NIH IC50) [µM]	IC50 [1, 4] [µM]	antagonism of growth inhibition by myo-inositol ([1]; myo-inositol at physiological concentrations, wild type NIH 3T3)	more potent inhibitor of cell growth than the simple myo-inositol analogue ([1]; wild type NIH 3T3 cells, compared with D-3-deoxy-fluoro-myo-inositol)	IC50 ([2]; + myo-inositol, ± S.E. of mean, read-out: v-sis NIH IC50) [µM]	IC50 [2, 5] [µM]	antagonism of growth inhibition by myo-inositol ([2]; myo-inositol at physiological concentrations, v-sis NIH 3T3)	selectivity for growth inhibition of v-sis compared to wild type NIH 3T3 cell ([2]; v-sis vs wild type NIH 3T3)	IC50 (HT-29 cells) [µM]	IC50 ([1]; + myo-inositol, read-out: NIH IC50 (class symbol)) [µM]	IC50 ([2]; + myo-inositol, read-out: v-sis NIH IC50 (class symbol)) [µM]	cell growth inhibitory activities [3]
CCCCCCCCCCCCCCCC(=O)OC[C@H](COP(=O)(O)O[C@H]1[C@H](O)[C@@H](O)[C@H](O)[C@@H](F)[C@H]1O)OC(=O)CCCCCCCCCCCCCCC [Compound 7, 3-Deoxy-3-fluoro-D-myo-inositol [(R)-2,3-bis(hexadecanoyloxy)propyl] hydrogen phosphate]	99 ± 13	110 ± 20	not antagonized by myo-inositol at physiological concentrations	up to 1,000 fold	81 ± 11	107 ± 15	not antagonized by myo-inositol at physiological concentrations	lost	53 ± 9	–	–	–
O[C@@H]1[C@@H](O)[C@H](O)[C@@H](F)[C@@H](O)[C@H]1O [3-deoxy-3-fluoro-myo-inositol, reference compound]	–	7000	–	–	–	1000	–	–	–	> 33000	> 33000	exhibit cell growth inhibitory activities
